These results are taken from patent US7935815B2, “Imidazoyl pyridine compounds and salts thereof” (Eisai R&D Management Co., Ltd., priority 2007, dated 2011).

As a reminder, the IC50 is the point on the concentration scale where inhibition reaches its midpoint.

In the assay the test system is Aβ42 production. Description: Quantification of Aβ peptide in culture of neurons from rat fetus brain (Aβ ELISA). The format is cell-based. The conditions noted are these: Rattus norvegicus, Neuron, 72 h, rat primary neuronal culture (embryonic day 18 Wistar rat cerebral cortex); cultured three days after addition of compound; Aβx-42 ELISA of the medium; read-out: Aβ42 production reducing effect IC50. How it is done: Quantification of Aβ Peptide in Culture of Neurons from Rat Fetus Brain
(1) Rat Primary Neuronal Culture
Primary neuronal cultures were prepared from the cerebral cortex of embryonic day 18 Wistar rats (Charles River Japan, Yokohama, Japan). Specifically, the embryos were aseptically removed from pregnant rats under ether anesthesia. The brain was isolated from the embryo and immersed in an ice-cold L-15 medium (Invitrogen Corp. Cat #11415-064, Carlsbad, Calif., USA, or SIGMA L1518, for example). The cerebral cortex was collected from the isolated brain under a stereoscopic microscope. The cerebral cortex fragments collected were enzymatically treated in an enzyme solution containing 0.25% trypsin (Invitrogen Corp. Cat #15050-065, Carlsbad, Calif., USA) and 0.01% DNase (Sigma D5025, St. Louis, Mo., USA) at 37° C. for 30 minutes to disperse the cells. Here, the enzymatic reaction was stopped by adding inactivated horse serum to the solution. The enzymatically treated solution was centrifuged at 1,500 rpm for five minutes to remove the supernatant. 5 to 10 ml of a medium was added to the resulting cell mass. Neurobasal medium (Invitrogen Corp. Cat #21103-049, Carlsbad, Calif., USA) supplemented with 2% B27 supplement (Invitrogen Corp. Cat #17504-044, Carlsbad, Calif., USA), 25 μM 2-mercaptoethanol (2-ME, WAKO Cat #139-06861, Osaka, Japan), 0.5 mM L-glutamine (Invitrogen Corp. Cat #25030-081, Carlsbad, Calif., USA), and Antibiotics-Antimycotics (Invitrogen Corp. Cat #15240-062, Carlsbad, Calif., USA) was used as the medium (Neurobasal/B27/2-ME). However, the above Neurobasal medium not supplemented with 2-ME (Neurobasal/B27) was used for the assay. The cells were redispersed by mild pipetting of the cell mass to which the medium was added. The cell dispersion was filtered through a 40-μm nylon mesh (Cell Strainer, Cat #35-2340, Becton Dickinson Labware, Franklin Lakes, N.J., USA) to remove the remaining cell mass, and thus a neuronal cell suspension was obtained. The neuronal cell suspension was diluted with the medium and then plated in a volume of 100 μl/well at an initial cell density of 5×10^5 cells/cm^2 in a 96-well polystyrene culture plate pre-coated with poly-L or D-lysine (Falcon Cat #35-3075, Becton Dickinson Labware, Franklin Lakes, N.J., USA coated with poly-L-lysine using the method shown below, or BIOCOAT™ cell environments Poly-D-lysine cell ware 96-well plate, Cat #35-6461, Becton Dickinson Labware, Franklin Lakes, N.J., USA). Poly-L-lysine coating was carried out as follows. 100 μg/ml of a poly-L-lysine (SIGMA P2636, St. Louis, Mo., USA) solution was aseptically prepared with a 0.15 M borate buffer (pH 8.5). 100 μl/well of the solution was added to the 96-well polystyrene culture plate and incubated at room temperature for one or more hours or at 4° C. overnight or longer. The coated 96-well polystyrene culture plate was washed with sterile water four or more times, and then dried or rinsed with, for example, sterile PBS or medium, and used for cell plating. The plated cells were cultured in the culture plate at 37° C. in 5% CO2-95% air for one day. Then, the total amount of the medium was replaced with a fresh Neurobasal™/B27/2-ME medium, and then the cells were cultured for further three days.
The drug was added to the culture plate on Day 4 of culture as follows. The total amount of the medium was removed from the wells, and 180 μl/well of Neurobasal medium not containing 2-ME and containing 2% B-27 (Neurobasal/B27) was added thereto. A solution of the test compound in dimethyl sulfoxide (hereinafter abbreviated as DMSO) was diluted with Neurobasal/B27 at 10-fold of the final concentration. 20 μl/well of the dilution was added to and sufficiently mixed with the medium. The final DMSO concentration was 1% or less. Only DMSO was added to the control group.
The cells were cultured for three days after addition of the compound, and the total amount of the medium was collected. […]
On the technique in general: ELISA stands for enzyme-linked immunosorbent assay.
In the case of `CCCCC(O)c1ccc([C@H]2CCCn3nc(/C=C/c4ccc(-n5cnc(C)c5)c(OC)c4)nc32)cc1` (single isomer, unassigned) [Example 19, 1-{4-{2-{(E)-2-[3-methoxy-4-(4-methyl-1H-imidazol-1-yl)phenyl]vinyl}-5,6,7,8-tetrahydro[1,2,4]triazolo[1,5-a]pyridin-8-yl}phenyl}pentan-1-ol], the IC50 turned out to be 43 nM. With `COc1cc(/C=C/c2nc3n(n2)CCC[C@]3(O)c2ccc(C(C)C)cc2)ccc1-n1cnc(C)c1` (single isomer, unassigned) [Example 55, (−)-8-(4-isopropylphenyl)-2-{(E)-2-[3-methoxy-4-(4-methyl-1H-imidazol-1-yl)phenyl]vinyl}-5,6,7,8-tetrahydro[1,2,4]triazolo[1,5-a]pyridin-8-ol], the IC50 amounted to 28 nM. On to `COc1cc(/C=C/c2nc3n(n2)CCCC3(O)c2ccccc2F)ccc1-n1cnc(C)c1` (single isomer, unassigned) [Example 59, (−)-8-(2-fluorophenyl)-2-{(E)-2-[3-methoxy-4-(4-methyl-1H-imidazol-1-yl)phenyl]vinyl}-5,6,7,8-tetrahydro-[1,2,4]triazolo[1,5-a]pyridin-8-ol], for which the IC50 was determined as 45 nM.

As to `COc1cc(/C=C/c2nc3n(n2)CCC[C@]3(C#N)c2cc(F)c(F)c(F)c2)ccc1-n1cnc(C)c1` (single isomer, unassigned) [Example 72, (−)-2-{(E)-2-[3-methoxy-4-(4-methyl-1H-imidazol-1-yl)phenyl]vinyl}-8-(3,4,5-trifluorophenyl)-5,6,7,8-tetrahydro[1,2,4]triazolo[1,5-a]pyridine-8-carbonitrile], the IC50 was determined as 26 nM. Turning to `COc1cc(/C=C(\F)c2nc3n(n2)CCC[C@]3(O)c2cc(F)c(F)c(F)c2)ccc1-n1cnc(C)c1` (single isomer, unassigned) [Example 94, (−)-2-{(Z)-1-fluoro-2-[3-methoxy-4-(4-methyl-1H-imidazol-1-yl)phenyl]vinyl}-8-(3,4,5-trifluorophenyl)-5,6,7,8-tetrahydro[1,2,4]triazolo[1,5-a]pyridin-8-ol], the IC50 came to 52 nM. The figure for `COc1cc(/C=C/c2nc3n(n2)CCC[C@]3(O)c2cc(F)c(F)c(F)c2)c(F)cc1-n1cnc(C)c1` (single isomer, unassigned) [Example 96, (−)-2-{(E)-2-[2-fluoro-5-methoxy-4-(4-methyl-1H-imidazol-1-yl)phenyl]vinyl}-8-(3,4,5-trifluorophenyl)-5,6,7,8-tetrahydro[1,2,4]triazolo[1,5-a]pyridin-8-ol] is 63 nM; for `COc1cc(/C=C/c2nc3n(n2)CCC[C@H]3C2CCCCC2)ccc1-n1cnc(C)c1` (single isomer, unassigned) [Example 114, (−)-8-cyclohexyl-2-{(E)-2-[3-methoxy-4-(4-methyl-1H-imidazol-1-yl)phenyl]vinyl}-5,6,7,8-tetrahydro[1,2,4]triazolo[1,5-a]pyridine] it is 51 nM; for `COc1cc(/C=C/c2nc3n(n2)CCC[C@@H]3C2CCOCC2)ccc1-n1cnc(C)c1` (single isomer, unassigned) [Example 116, (−)-2-{(E)-2-[3-methoxy-4-(4-methyl-1H-imidazol-1-yl)phenyl]vinyl}-8-(tetrahydropyran-4-yl)-5,6,7,8-tetrahydro[1,2,4]triazolo[1,5-a]pyridine] it is 173 nM.

Take `COc1cc(/C=C/c2nc3n(n2)CCC[C@@H]3[C@H]2CCCN2Cc2ccccc2)ccc1-n1cnc(C)c1` (single isomer, unassigned) [Example 133, (−)-8-(1-benzylpyrrolidin-2-yl)-2-{(E)-2-[3-methoxy-4-(4-methyl-1H-imidazol-1-yl)phenyl]vinyl}-5,6,7,8-tetrahydro[1,2,4]triazolo[1,5-a]pyridine]: the IC50 was determined as 65 nM. As to `COc1cc(/C=C/c2nc3n(n2)CCC3c2ccccc2)ccc1-n1cnc(C)c1` (single isomer, unassigned) [Example 141, (−)-2-{(E)-2-[3-methoxy-4-(4-methyl-1H-imidazol-1-yl)phenyl]vinyl}-7-phenyl-6,7-dihydro-5H-pyrrolo[1,2-b][1,2,4]triazole], the IC50 came out at 36 nM. The figure for `COc1nc(/C=C/c2nc3n(n2)CCC[C@H]3c2cc(F)c(F)c(F)c2)ccc1-n1cnc(C)c1` (single isomer, unassigned) [Example 169, (−)-2-{(E)-2-[6-methoxy-5-(4-methyl-1H-imidazol-1-yl)pyridin-2-yl]vinyl}-8-(3,4,5-trifluorophenyl)-5,6,7,8-tetrahydro-[1,2,4]triazolo[1,5-a]pyridine] is 22 nM; for `COc1nc(/C=C/c2nc3n(n2)CCCC3c2ccc(F)c(F)c2)ccc1-n1cnc(C)c1` (single isomer, unassigned) [Example 171, (−)-8-(3,4-difluorophenyl)-2-{(E)-2-[6-methoxy-5-(4-methyl-1H-imidazol-1-yl)pyridin-2-yl]vinyl}-5,6,7,8-tetrahydro-[1,2,4]triazolo[1,5-a]pyridine] it is 17 nM; for `COc1nc(/C=C/c2nc3n(n2)CCCC3c2ccc(F)cc2)ccc1-n1cnc(C)c1` (single isomer, unassigned) [Example 173, (−)-8-(4-fluorophenyl)-2-{(E)-2-[6-methoxy-5-(4-methyl-1H-imidazol-1-yl)pyridin-2-yl]vinyl}-5,6,7,8-tetrahydro-[1,2,4]triazolo[1,5-a]pyridine] it is 37 nM. Regarding `COc1nc(/C=C/c2nc3n(n2)CCC[C@@H]3c2ccc(F)c(Cl)c2)ccc1-n1cnc(C)c1` (single isomer, unassigned) [Example 175, (−)-8-(3-chloro-4-fluorophenyl)-2-{(E)-2-[6-methoxy-5-(4-methyl-1H-imidazol-1-yl)pyridin-2-yl]vinyl}-5,6,7,8-tetrahydro-[1,2,4]triazolo[1,5-a]pyridine], the IC50 amounted to 38 nM. Turning to `COc1nc(/C=C/c2nc3n(n2)CCC[C@@H]3c2cc(F)c(F)cc2F)ccc1-n1cnc(C)c1` (single isomer, unassigned) [Example 179, (−)-8-(2,4,5-trifluorophenyl)-2-{(E)-2-[6-methoxy-5-(4-methyl-1H-imidazol-1-yl)pyridin-2-yl]vinyl}-5,6,7,8-tetrahydro[1,2,4]triazolo[1,5-a]pyridine], the half-inhibitory concentration (IC50) stood at 22 nM. As for `COc1nc(/C=C/c2nc3n(n2)CCC[C@@H]3c2cc(F)ccc2F)ccc1-n1cnc(C)c1` (single isomer, unassigned) [Example 183, (−)-8-(2,5-difluorophenyl)-2-{(E)-2-[6-methoxy-5-(4-methyl-1H-imidazol-1-yl)pyridin-2-yl]vinyl}-5,6,7,8-tetrahydro[1,2,4]triazolo[1,5-a]pyridine], the concentration for half-maximal inhibition (IC50) was determined as 48 nM.

As to `COc1nc(/C=C/c2nc3n(n2)CCC[C@H]3c2ccc(F)cc2Br)ccc1-n1cnc(C)c1` (single isomer, unassigned) [Example 185, (−)-8-(2-bromo-4-fluorophenyl)-2-{(E)-2-[6-methoxy-5-(4-methyl-1H-imidazol-1-yl)pyridin-2-yl]vinyl}-5,6,7,8-tetrahydro-[1,2,4]triazolo[1,5-a]pyridine], the IC50 turned out to be 34 nM.

Take `COc1nc(/C=C/c2nc3n(n2)CCC[C@H]3c2ccc(F)cc2Cl)ccc1-n1cnc(C)c1` (single isomer, unassigned) [Example 187, (−)-8-(2-chloro-4-fluorophenyl)-2-{(E)-2-[6-methoxy-5-(4-methyl-1H-imidazol-1-yl)pyridin-2-yl]vinyl}-5,6,7,8-tetrahydro-[1,2,4]triazolo[1,5-a]pyridine]: the 50% inhibitory concentration (IC50) was found to be 38 nM.
